Experimental data published in patent US20060079463A1 (priority 2003, published 2006).

What was measured:
[1] = system: human melanoma xenographts; conditions: a dose of MIBG under hyperglycemic conditions, SCID mice; cited from earlier work
Mouse Hepatoma H22 = assay: Kunming mouse Hepatoma H22 model, in vivo tumor growth; conditions: for Compared to Glucose group Inhibition (%) / Compared to Saline group Inhibition (%) / Tumor size Mean ± SD: Table 6.2; for Compared to Glucose group Inhibition (%) / Compared to Saline group Inhibition (%) / Tumor size Mean ± SD / Tumor Size (Mean ± SD, g) / Tumor Inhibition (%): 10 days; for Tumor Size (Mean ± SD, g) / Tumor Inhibition (%): Table 2.2; for Tumor Inhibition (%): vs saline
Protocol: (§1) (2) Kunming mouse Hepatoma H22 model: Mouse Hepatoma H22 ascites tumor cells, 1×10E6 cells in 0.2 ml saline per mouse, were injected subcutaneously to the right axillary space of 5- to 6-week old Kunming mice.
(§2) C. […] The amount of either tested drug for one kg mouse was prepared as 10 ml solution, and 10 micro-liters per gram of mouse were injected intraperitoneally, once or twice daily, for 10 consecutive days for the Kunming mice with Sarcoma S-180 and Hepatoma H22, and for 15 consecutive days for C57BL/6 mice with melanoma B16. 50% glucose, 30 ml/kg, was given by gavage to selected groups of mice receiving the tested drug 60 to 90 minutes before each injection. One group of mice received saline only while another group of mice received the glucose treatment without the tested drug; these groups served as the saline-only control and the glucose-only control, respectively. A third group of mice received intraperitoneal injection of cyclophosphamide (CTX), or 5-Fluorouracil (5FU), 25 to 50 mg/kg body weight, was included in some experiments as positive control. At the end of the experiment, mouse body weight was taken, and the Sarcoma S-180, or Hepatoma H22 tumors were dissected and weighted, while the tumor size of melanoma B16 was measured using a caliper. Melanoma B16 tumor volume was calculated using the following equation: Tumor volume=S*S*L*0.5, where S is the short diameter, and L stands for long diameter of the tumor according to Beck M T et al. (Cancer Research 63:3598, 2003).

Mouse Sarcoma S-180 = assay: Kunming mouse Sarcoma S-180 model, in vivo tumor growth; conditions: for Tumor Size (Mean ± SD, g) / Tumor Inhibition (%) / Tumor Weight (Mean ± SD, g) / Tumor Inhibition Rate (%): 10 days; for Tumor Weight (Mean ± SD, g) / Tumor Inhibition Rate (%): Table 3.2
Protocol: (§3) (1) Kunming mouse Sarcoma S-180 model: Mouse Sarcoma S-180 ascites tumor cells, 1×10E6 cells resuspended in 0.2 ml saline per mouse, were injected subcutaneously to the right axillary space of 5- to 6-week old Kunming mice.
as §2

Mouse melanoma B16 = assay: C57BL/6 mouse melanoma B16 model, tumor growth; assay type: in vivo; conditions: for Tumor Size (Mean ± SD, mm3) / Tumor Inhibition (%): Table 4.2, 1 dose/day, 15 days; for Tumor Inhibition (%): vs saline
Protocol: (§4) (3) C57BL/6 mouse melanoma B16 model: Mouse melanoma B16 cells, 1×10E7 cells in 0.2 ml of saline per mouse, were injected subcutaneously into right axillary space of 6 to 8 week old C57BL/6 mice. The mice were randomly divided into groups after tumor cell inoculation.
as §2

[2] = Toxicity observation during URIN and MAIN administration in tumor-bearing mice; assay type: in vivo; conditions: i.p., up to 4480 mg/kg once or twice daily
Protocol: as §2

[3] = cited from earlier work
[4] = Body weight of mice bearing Sarcoma S-180; conditions: CTX 30 mg/kg i.p., 1 dose/day, 10 days
Protocol: as §3, §2

[5] = Body weight of mice bearing Hepatoma H22; conditions: Table 2.1; CTX 25 mg/kg i.p., 1 dose/day, 10 days
Protocol: as §1
as §2, with “A third group of mice received intraperitoneal injection of cyclophosphamide (CTX), or 5-Fluorouracil (5FU), 25 to 50 mg/kg body weight, was included in some experiments as positive control.” left out

[6] = Body weight of mice with B16 melanoma; conditions: Table 4.1; CTX 50 mg/kg i.p., 1 dose/day, 15 days
Protocol: as §4
as §2, with “A third group of mice received intraperitoneal injection of cyclophosphamide (CTX), or 5-Fluorouracil (5FU), 25 to 50 mg/kg body weight, was included in some experiments as positive control.” left out

[7] = human, in vivo; cited from earlier work
[8] = URIN 4480 mg/kg i.p., 2 doses/day, no glucose
[9] = URIN H 4480 mg/kg i.p., glucose pre-treatment
[10] = URIN L 1680 mg/kg i.p., glucose pre-treatment
[11] = MAIN H 3750 mg/kg i.p., 2 doses/day, glucose pre-treatment
[12] = MAIN L 1500 mg/kg i.p., 2 doses/day, glucose pre-treatment
[13] = MAIN M 2500 mg/kg i.p., 2 doses/day, glucose pre-treatment

N=C(N)NCc1cccc(I)c1 [MIBG, m-Iodpbenzylguanidine]
Reduction of extracellular pH of tumor [1]: up to 0.59 units

O=c1[nH]cc(F)c(=O)[nH]1 [5FU, 5-Fluorouracil]
Compared to Glucose group Inhibition (%) (Mouse Hepatoma H22; 5FU 25 mg/kg i.p., 1 dose/day): 71.4% | Compared to Saline group Inhibition (%) (Mouse Hepatoma H22; 5FU 25 mg/kg i.p., 1 dose/day): 77.4% | Tumor size Mean ± SD (Mouse Hepatoma H22; 5FU 25 mg/kg i.p., 1 dose/day): 0.48 ± 0.25 g

C1N2CN3CN1CN(C2)C3 [URIN, Methenamine]
Tumor Size (Mean ± SD, g) (Mouse Sarcoma S-180; Table 1.2, URIN 4480 mg/kg i.p., 2 doses/day, no glucose): 1.07 ± 0.31 g | Tumor Inhibition (%) (Mouse Sarcoma S-180; Table 1.2, URIN 4480 mg/kg i.p., 2 doses/day, no glucose, vs saline): 21.9% | Tumor Weight (Mean ± SD, g) (Mouse Sarcoma S-180; URIN H 4480 mg/kg i.p., 2 doses/day, glucose pre-treatment): 1.25 ± 0.41 g | Tumor Inhibition Rate (%) (Mouse Sarcoma S-180; URIN H 4480 mg/kg i.p., 2 doses/day, glucose pre-treatment, vs saline): 36.2% | Tumor Weight (Mean ± SD, g) (Mouse Sarcoma S-180; URIN L 1680 mg/kg i.p., 2 doses/day, glucose pre-treatment): 1.54 ± 0.56 g | Tumor Inhibition Rate (%) (Mouse Sarcoma S-180; URIN L 1680 mg/kg i.p., 2 doses/day, glucose pre-treatment, vs saline): 21.4% | Tumor Weight (Mean ± SD, g) (Mouse Sarcoma S-180; URIN M 2800 mg/kg i.p., 2 doses/day, glucose pre-treatment): 1.57 ± 0.50 g | Tumor Inhibition Rate (%) (Mouse Sarcoma S-180; URIN M 2800 mg/kg i.p., 2 doses/day, glucose pre-treatment, vs saline): 19.9% | In vivo growth of mouse tumor Sarcoma S-180 (conclusion) (Mouse Sarcoma S-180; administration of URIN): significantly inhibited | Tumor Size (Mean ± SD, g) (Mouse Hepatoma H22; [8]): 1.37 ± 0.39 g | Tumor Inhibition (%) (Mouse Hepatoma H22; [8]): 41.2% | In vivo growth of mouse tumor Hepatoma H22 (conclusion) (Mouse Hepatoma H22; administration of URIN): significantly inhibited | Tumor Size (Mean ± SD, mm3) (Mouse melanoma B16; [9]): 2755 ± 1098 mm3 | Tumor Inhibition (%) (Mouse melanoma B16; [9]): 32.1% | Tumor Size (Mean ± SD, mm3) (Mouse melanoma B16; [10]): 3376 ± 1419 mm3 | Tumor Inhibition (%) (Mouse melanoma B16; [10]): 16.7% | Tumor Size (Mean ± SD, mm3) (Mouse melanoma B16; URIN M 2800 mg/kg i.p., glucose pre-treatment): 4241 ± 1834 mm3 | Tumor Inhibition (%) (Mouse melanoma B16; URIN M 2800 mg/kg i.p., glucose pre-treatment, value in bracket = increased rate): (−14.6%) | In vivo growth of mouse tumor B16 Melanoma (conclusion) (Mouse melanoma B16; administration of URIN): significantly inhibited | Death from drug toxicity [2]: No mouse died of URIN toxicity | Stability in a pH-neutral medium ([3]; pH-neutral medium): very stable | Liberation of formaldehyde in serum and normal tissue ([3]; serum and normal tissue): does not liberate formaldehyde

O=P1(N(CCCl)CCCl)NCCCO1 (stereo not shown) [CTX, cyclophosphamide]
Tumor Size (Mean ± SD, g) (Mouse Sarcoma S-180; Table 1.2, CTX 30 mg/kg i.p., 1 dose/day): 0.53 ± 0.14 g | Tumor Inhibition (%) (Mouse Sarcoma S-180; Table 1.2, CTX 30 mg/kg i.p., 1 dose/day, vs saline): 61.3% | Tumor Weight (Mean ± SD, g) (Mouse Sarcoma S-180; CTX 30 mg/kg i.p., 1 dose/day): 0.53 ± 0.22 g | Tumor Inhibition Rate (%) (Mouse Sarcoma S-180; CTX 30 mg/kg i.p., 1 dose/day, vs saline): 73.0% | Tumor Size (Mean ± SD, g) (Mouse Hepatoma H22; CTX 25 mg/kg i.p., 1 dose/day): 1.21 ± 0.37 g | Tumor Inhibition (%) (Mouse Hepatoma H22; CTX 25 mg/kg i.p., 1 dose/day): 48.1% | Tumor Size (Mean ± SD, mm3) (Mouse melanoma B16; CTX 50 mg/kg i.p.): 118 ± 100 mm3 | Tumor Inhibition (%) (Mouse melanoma B16; CTX 50 mg/kg i.p.): 97% | Body weight (Mean ± SD, g) End ([4]; Table 1.1): 23.5 ± 1.7 g | Body weight (Mean ± SD, g) Start ([4]; Table 1.1): 21.9 ± 1.1 g | Body weight (Mean ± SD, g) End ([4]; Table 3.1): 23.0 ± 2.9 g | Body weight (Mean ± SD, g) Start ([4]; Table 3.1): 21.4 ± 1.0 g | Body weight (Mean ± SD, g) End [5]: 32.6 ± 2.5 g | Body weight (Mean ± SD, g) Start [5]: 24.6 ± 1.0 g | Body weight (Mean ± SD, g) End [6]: 18.6 ± 1.6 g | Body weight (Mean ± SD, g) Start [6]: 20.3 ± 1.5 g

C1N2CN3CN1CN(C2)C3.O=C(O)C(O)c1ccccc1 (stereo not shown) [MAIN, methenamine mandelate]
Tumor Size (Mean ± SD, g) (Mouse Sarcoma S-180; Table 5.2, MAIN H 3714 mg/kg i.p., 2 doses/day, glucose pre-treatment): 1.25 ± 0.41 g | Tumor Inhibition (%) (Mouse Sarcoma S-180; Table 5.2, MAIN H 3714 mg/kg i.p., 2 doses/day, glucose pre-treatment, vs glucose group): 45.9% | Tumor Size (Mean ± SD, g) (Mouse Sarcoma S-180; Table 5.2, MAIN L 1485 mg/kg i.p., 2 doses/day, glucose pre-treatment): 2.14 ± 0.60 g | Tumor Inhibition (%) (Mouse Sarcoma S-180; Table 5.2, MAIN L 1485 mg/kg i.p., 2 doses/day, glucose pre-treatment, vs glucose group): 7.4% | Tumor Size (Mean ± SD, g) (Mouse Sarcoma S-180; Table 5.2, MAIN M 2320 mg/kg i.p., 2 doses/day, glucose pre-treatment): 1.85 ± 0.62 g | Tumor Inhibition (%) (Mouse Sarcoma S-180; Table 5.2, MAIN M 2320 mg/kg i.p., 2 doses/day, glucose pre-treatment, vs glucose group): 19.9% | Compared to Glucose group Inhibition (%) (Mouse Hepatoma H22; [11]): 38.7% | Compared to Saline group Inhibition (%) (Mouse Hepatoma H22; [11]): 51.4% | Tumor size Mean ± SD (Mouse Hepatoma H22; [11]): 1.03 ± 0.66 g | Compared to Glucose group Inhibition (%) (Mouse Hepatoma H22; [12]): 6.0% | Compared to Saline group Inhibition (%) (Mouse Hepatoma H22; [12]): 25.5% | Tumor size Mean ± SD (Mouse Hepatoma H22; [12]): 1.58 ± 0.42 g | Compared to Glucose group Inhibition (%) (Mouse Hepatoma H22; [13]): 6.5% | Compared to Saline group Inhibition (%) (Mouse Hepatoma H22; [13]): 25.5% | Tumor size Mean ± SD (Mouse Hepatoma H22; [13]): 1.57 ± 0.74 g | Side effects resulting from long term use [7]: negligible
